Test system: ATF4 luciferase reporter in HEK293T cells
Assay: ATF4-Luc assay (ATF4 luciferase reporter, tunicamycin-treated HEK293T cells)
Type: cell-based, human
Conditions: Homo sapiens, HEK-293T; HEK293T cells carrying the ATF4 luciferase reporter, 1 μg/mL tunicamycin, 7 hours

Row | Compound | EC50 [nM]
1 | COc1cc(OCC(=O)NC23CCC(NC(=O)COc4ccc(Cl)c(F)c4)(CC2)[C@@H](O)C3)ccc1Cl [Compound 465, 2-(4-chloro-3-fluorophenoxy)-N-{(2S)-4-[2-(4-chloro-3-methoxyphenoxy)acetamido]-2-hydroxybicyclo[2.2.2]octan-1-yl}acetamide] | < 10
2 | NCc1ccc(OCC(=O)NC23CC(NC(=O)COc4ccc(Cl)c(F)c4)(C2)C3)cn1 [Compound 259, 2-{[6-(aminomethyl)pyridin-3-yl]oxy}-N-{3-[2-(4-chloro-3-fluorophenoxy)acetamido]bicyclo[1.1.1]pentan-1-yl}acetamide] | 250 to 500
3 | O=C(COc1ccc(Cl)c(F)c1)NC12CCC(NC(=O)COc3ccnc(C(F)(F)F)c3)(CC1)[C@H](O)C2 (single isomer, unassigned) [Compound 318] | 10 to 50
4 | O=C(COc1ccc(Cl)cc1)NC12CC(NC(=O)COc3cccc(C(F)(F)F)n3)(C1)C2 [Compound 836, 2-(4-chlorophenoxy)-N-[3-(2-{[6-(trifluoromethyl)pyridin-2-yl]oxy}acetamido)bicyclo[1.1.1]pentan-1-yl]acetamide] | 250 to 500
5 | O=C(/C=C/c1cccnc1)NC12CC(NC(=O)COc3ccc(Cl)c(F)c3)(C1)C2 [Compound 352, (2E)-N-{3-[2-(4-chloro-3-fluorophenoxy)acetamido]bicyclo[1.1.1]pentan-1-yl}-3-(pyridin-3-yl)prop-2-enamide] | 500 to 2000
6 | CC(C)(CNC12CC(NC(=O)COc3ccc(Cl)c(F)c3)(C1)C2)Oc1ccc(Cl)cc1 [Compound 641, 2-(4-chloro-3-fluorophenoxy)-N-(3-{[2-(4-chlorophenoxy)-2-methylpropyl]amino}bicyclo[1.1.1]pentan-1-yl)acetamide] | > 2000
7 | O=C(COc1ccc(C(F)(F)F)nc1)NC12CC(NC(=O)COc3ccc4c(c3)OC(F)(F)O4)(C1)C2 [Compound 266, 2-[(2,2-difluoro-2H-1,3-benzodioxol-5-yl)oxy]-N-[3-(2-{[6-(trifluoromethyl)-pyridin-3-yl]oxy}acetamido)bicyclo[1.1.1]pentan-1-yl]acetamide] | < 10
8 | O=C(COc1ccc(F)c(C(F)(F)F)c1)NC12CCC(NC(=O)COc3ccc(F)c(F)c3)(CC1)[C@@H](O)C2 [Compound 845, 2-(3,4-difluorophenoxy)-N-[(2S)-4-{2-[4-fluoro-3-(trifluoromethyl)phenoxy]acetamido}-2-hydroxybicyclo[2.2.2]octan-1-yl]acetamide] | < 10
9 | O=C(COc1ccc(Cl)c(F)c1)NC12CCC(NC(=O)COc3ccc(Cl)c(F)c3)(CC1)C1(CO1)C2 (centres unmarked) [Compound 654, N,N′-(spiro[bicyclo[2.2.2]octane-2,2′-oxirane]-1,4-diyl)bis[2-(4-chloro-3-fluorophenoxy)acetamide]] | < 10
10 | O=C(COc1ccc(Cl)c(F)c1)NC12CCC(NC(=O)COc3ccc(Cl)c(F)c3)(CC1)[C@@H](O)[C@@H]2O (racemic) [Compound 745, rac-N,N′-[(2R,3R)-2,3-dihydroxybicyclo[2.2.2]octane-1,4-diyl]bis[2-(4-chloro-3-fluorophenoxy)acetamide]] | < 10
11 | O=C(COc1ccc(OC(F)F)c(F)c1)NC12CCC(NC(=O)COc3ccc(Cl)c(F)c3)(CC1)[C@@H](O)C2 [Compound 801, 2-(4-chloro-3-fluorophenoxy)-N-[(2S)-4-{2-[4-(difluoromethoxy)-3-fluorophenoxy]acetamido}-2-hydroxybicyclo[2.2.2]octan-1-yl]acetamide] | < 10
12 | COc1ccc(OCC(=O)NC23CCC(NC(=O)COc4ccc(Cl)c(F)c4)(CC2)[C@@H](O)C3)cn1 [Compound 651, 2-(4-chloro-3-fluorophenoxy)-N-[(2S)-2-hydroxy-4-{2-[(6-methoxypyridin-3-yl)oxy]acetamido}bicyclo[2.2.2]octan-1-yl]acetamide] | < 10
13 | O=C(COc1ccc(Cl)c(F)c1)NC12CC(NCC(O)c3ccc(Cl)c(F)c3)(C1)C2 (centres unmarked) [Compound 292, 2-(4-chloro-3-fluorophenoxy)-N-(3-{[2-(4-chloro-3-fluorophenyl)-2-hydroxyethyl]amino}bicyclo[1.1.1]pentan-1-yl)acetamide] | 500 to 2000
14 | O=C(COc1ccc(Cl)c(F)c1)NC12CCC(NC(=O)COc3ccccn3)(C1)C2 [Compound 404, 2-(4-chloro-3-fluorophenoxy)-N-(4-{2-[(pyridin-2-yl)oxy]acetamido}bicyclo[2.1.1]hexan-1-yl)acetamide] | 500 to 2000
15 | O=C(COc1ccc(F)c(C(F)F)c1)NC12CCC(NC(=O)COc3ccc(Cl)c(F)c3)(CC1)[C@@H](O)C2 [Compound 790, 2-(4-chloro-3-fluorophenoxy)-N-[(2S)-4-{2-[3-(difluoromethyl)-4-fluorophenoxy]acetamido}-2-hydroxybicyclo[2.2.2]octan-1-yl]acetamide] | < 10
16 | O=C(COc1ccc(F)c(F)c1)NC12CCC(NC(=O)COc3cccc(C(F)(F)F)c3)(CC1)[C@@H](O)C2 [Compound 809, 2-(3,4-difluorophenoxy)-N-[(3S)-3-hydroxy-4-{2-[3-(trifluoromethyl)phenoxy]acetamido}bicyclo[2.2.2]octan-1-yl]acetamide] | < 10

Row | Compound | EC50 [nM]
17 | O=C(/C=C/c1ccc(C(F)(F)F)cc1)NC12CC(NC(=O)/C=C/c3ccc(C(F)(F)F)cc3)(C1)C2 [Compound 370, (2E,2′E)-N,N′-(bicyclo[1.1.1]pentane-1,3-diyl)bis{3-[4-(trifluoromethyl)phenyl]prop-2-enamide}] | > 2000
18 | NC(=O)C1CC2(NC(=O)COc3ccc(Cl)c(F)c3)CCC1(NC(=O)COc1ccc(Cl)c(F)c1)CC2 (centres unmarked) [Compound 441, 1,4-bis[2-(4-chloro-3-fluorophenoxy)acetamido]bicyclo[2.2.2]octane-2-carboxamide] | 10 to 50
19 | Cc1ccc(OCC(=O)NC23CC(NC(=O)COc4ccc(Cl)c(Cl)c4)(C2)C3)cn1 [Compound 295, 2-(3,4-dichlorophenoxy)-N-(3-{2-[(6-methylpyridin-3-yl)oxy]acetamido}bicyclo[1.1.1]pentan-1-yl)acetamide] | 50 to 250
20 | O=C(COc1ccc(Cl)c(F)c1)NC12CCC(NC(=O)COc3ccc(Cl)c(F)c3)(CC1)C(NCCO)C2 (centres unmarked) [Compound 707, N,N′-{2-[(2-hydroxyethyl)amino]bicyclo[2.2.2]octane-1,4-diyl}bis[2-(4-chloro-3-fluorophenoxy)acetamide]] | < 10
21 | Cc1cc(OCC(=O)NC23CCC(NC(=O)COc4ccc(Cl)c(F)c4)(CC2)C[C@@H]3O)cc(C)c1C [Compound 503, 2-(4-chloro-3-fluorophenoxy)-N-{(3S)-3-hydroxy-4-[2-(3,4,5-trimethylphenoxy)acetamido]bicyclo[2.2.2]octan-1-yl]acetamide] | 10 to 50
22 | CN(C)c1cccc(COCC(=O)NC23CC(NC(=O)COc4ccc(Cl)c(F)c4)(C2)C3)c1 [Compound 141] | 500 to 2000
23 | O=C(COc1ccc(F)c(C(F)(F)F)c1)NC12CCC(NC(=O)COc3ccc(Cl)cc3)(CC1)[C@@H](O)C2 [Compound 846, 2-(4-chlorophenoxy)-N-[(2S)-4-{2-[4-fluoro-3-(trifluoromethyl)phenoxy]acetamido}-2-hydroxybicyclo[2.2.2]octan-1-yl]acetamide] | < 10
24 | O=C(COc1ccc(Cl)cc1)NC12CCC(NC(=O)COc3ccc(F)c(F)c3)(CC1)[C@@H](O)C2 [Compound 618, 2-(4-chlorophenoxy)-N-{(3S)-4-[2-(3,4-difluorophenoxy)acetamido]-3-hydroxybicyclo[2.2.2]octan-1-yl}acetamide] | < 10
25 | O=C(COc1ccc2c(c1)OC(F)(F)O2)NC12CCC(NC(=O)COc3ccc(F)c(F)c3)(CC1)[C@@H](O)C2 [Compound 804, 2-[(2,2-difluoro-2H-1,3-benzodioxol-5-yl)oxy]-N-{(3S)-4-[2-(3,4-difluorophenoxy)acetamido]-3-hydroxybicyclo[2.2.2]octan-1-yl}acetamide] | < 10
26 | O=C(COc1ccc(Cl)c(Cl)c1)NC12CC(NCCOc3ccc(Cl)c(F)c3)(C1)C2 [Compound 124, N-(3-{[2-(4-chloro-3-fluorophenoxy)ethyl]amino}bicyclo[1.1.1]pentan-1-yl)-2-(3,4-dichlorophenoxy)acetamide] | 10 to 50
27 | CS(=O)(=O)c1ccc(CC(=O)NC23CCC(NC(=O)COc4ccc(Cl)c(F)c4)(CC2)CC3O)cc1 (centres unmarked) [Compound 325, 2-(4-chloro-3-fluorophenoxy)-N-(3-hydroxy-4-{2-[4-(methanesulfonyl)phenyl]acetamido}bicyclo[2.2.2]octan-1-yl)acetamide] | > 2000
28 | O=C(COc1ccc(Cl)c(F)c1)NC12CC(NCC(=O)c3ccc(Cl)cc3)(C1)C2 [Compound 289, 2-(4-chloro-3-fluorophenoxy)-N-(3-{[2-(4-chlorophenyl)-2-oxoethyl]amino}bicyclo[1.1.1]pentan-1-yl)acetamide] | 50 to 250
29 | COC(=O)c1cc(OCC(=O)NC23CC(NC(=O)COc4ccc(Cl)c(F)c4)(C2)C3)ccc1Cl [Compound 223, methyl 2-chloro-5-[2-({3-[2-(4-chloro-3-fluorophenoxy)acetamido]-bicyclo[1.1.1]pentan-1-yl}amino)-2-oxoethoxy]benzoate] | 500 to 2000
30 | Cc1cc(OCC(=O)NC23CC(NC(=O)COc4ccc(Cl)c(F)c4)(C2)C3)cnc1C#N [Compound 242, 2-(4-chloro-3-fluorophenoxy)-N-(3-{2-[(6-cyano-5-methylpyridin-3-yl)oxy]acetamido}bicyclo[1.1.1]pentan-1-yl)acetamide] | 10 to 50
31 | O=C(CCc1ccc(Cl)cc1)NC12CC(NC(=O)COc3ccc(Cl)c(F)c3)(C1)C2 [Compound 102, N-{3-[2-(4-chloro-3-fluorophenoxy)acetamido]bicyclo[1.1.1]pentan-1-yl}-3-(4-chlorophenyl)propanamide] | 50 to 250
32 | O=C(COc1ccc(Cl)c(F)c1)NC12CCC(NC(=O)COc3ccc(C(F)F)cc3)(CC1)[C@@H](O)C2 [Compound 537, 2-(4-chloro-3-fluorophenoxy)-N-[(3S)-4-{2-[4-(difluoromethyl)phenoxy]acetamido}-3-hydroxybicyclo[2.2.2]octan-1-yl]acetamide] | < 10

Source: US20240166652A1, “MODULATORS OF THE INTEGRATED STRESS PATHWAY” (Calico Life Sciences LLC, priority 2017, published 2024)
